From patent US11542316B2, “S-Arrestin peptides and therapeutic uses thereof” (APITOPE INTERNATIONAL NV, priority 2017, dated 2023)
Ends that are not written are not given here.

Key:
[1] = system: T cell line with MGAR APC; test: Antigen Processing Independent Presentation System (APIPS) assay, fresh or fixed MGAR APC; format: cell-based, DR2 mice; details: DR2 T cell line, IFN-γ, 24 h
Procedure: FIG. 4: Identification of apitopes within HIP-9FL. DR2 mice were immunized with HIP-9FL-KKK and a T cell line was established. Ten days after immunization the LN and spleens were harvested and cultured with different concentrations of peptide (0.1-1-2.5 and 5 μg/ml); 2×10^6 cells/ml APCs+1×10^6 cells/ml CD4 T cells per well. At day 7 the cells were re-stimulated with the same concentrations of peptide. On day 21 an APIPS test was done using commercial APC (MGAR). After 24 h, antigen-induced T cell activation was measured by IFN-γ ELISA and shown as OD values. The graph represents the mean of duplicate measurements±SEM. LN, lymph nodes; APC, Antigen presenting cell; APIPS, Antigen Processing Independent Presentation System.
Antigen-specific clones or TCL were tested for their reactivity to the peptides, presented by fixed or not fixed (fresh) cells (VAVY or MGAR) (=APCs). 5×10^4 cells from the individual clones were cultured with 10 μg/ml peptide and 5×10^4 fixed or fresh APCs. In the case of TCL, 5×10^4 cells were cultured with 10 μg/ml and 25 μg/ml peptide and 2.5×10^4 fixed or fresh APCs. To fixate APCs, cells were incubated with 0.5% paraformaldehyde (Merck, Darmstadt, Germany) (pH7) for 5 min at room temperature (RT). The fixation reaction was stopped by adding 0.4M glycine (Sigma-Aldrich) and washing the cells in RPMI-10% FCS. Additionally, reactivity towards human SAg protein (QBiologicals, Eurofins Amatsigroup, Ghent, Belgium) was measured to identify cryptic epitopes. After 24 h or 48 h, antigen-induced IFN-γ or IL-2 production (respectively) was measured by ELISA (R&D Systems, Abingdon, UK).
DR3tg or DR2tg mice were immunised subcutaneously in the base of the tail with 50 μg peptide emulsified in CFA (peptide/CFA). Ten days after immunisation, draining lymph nodes (LN) and spleens were harvested. […] At day 7, TCL cells were counted and cultured with fresh APC, peptides and IL-2, all at the same concentrations as above. […]

[2] = system: LN cells and splenocytes upon SAg or peptide restimulation; test: Ex vivo tolerization experiment, DR2tg mice; format: in vivo; details: DR2 mice, IFN-γ
Procedure: FIG. 7: Ex vivo tolerisation protocol. Mice are injected subcutaneously in the flank with 0.1 μg/ml, 1 μg/ml and 10 μg/ml peptide on days −15, −13 and −11, followed by 3 injections of 100 μg/ml on days −8, −6 and −4 (escalating dose regime). On day 0, mice are immunized subcutaneously at the base of the tail with SAg/CFA or peptide/CFA. Mice are sacrificed 10 days after immunization to measure proliferation of LN cells and splenocytes upon SAg or peptide restimulation. LN, lymph nodes.
FIG. 11: Ex vivo tolerance induction by HIP-9K1-KKK apitope. DR2 mice are injected subcutaneously in the flank with 0.1 μg/ml, 1 μg/ml and 10 μg/ml HIP-9K1-KKK on days −15, −13 and −11, followed by 3 injections of 100 μg/ml on days −8, −6 and −4 (escalating dose regime). On day 0, mice are immunized subcutaneously at the base of the tail with HIP-9FL/CFA. Mice are sacrificed 10 days after immunization to measure proliferation of LN cells and splenocytes upon SAg or peptide restimulation. Data represent mean±SEM of the concentration values for the PBS-treated mice (black lines) and peptide-treated mice (color lines). IFN-γ production expressed as IFN-γ concentration (pg/ml). Two-way ANOVA was used to measure overall treatment effects on T cell activation and p-values are written in the graphs. Bonferonni post-hoc testing was used and significant differences are indicated in the graphs (* p<0.05; **** p<0.0001). LN, lymph nodes. (A) Tolerisation against SAg in LN. (B) Tolerisation against HIP-9FL and HIP-9K1-KKK in LN. (C) Tolerisation against SAg in spleen. (D) Tolerisation against HIP-9FL and HIP-9K1-KKK in spleen.
FIG. 13: Ex vivo tolerance induction by HIP-12G1-KKK apitope. DR2 mice are injected subcutaneously in the flank with 0.1 μg/ml, 1 μg/ml and 10 μg/ml HIP-12G1-KKK on days −15, −13 and −11, followed by 3 injections of 100 μg/ml on days −8, −6 and −4 (escalating dose regime). On day 0, mice are immunized subcutaneously at the base of the tail with HIP-12AK/CFA. Mice are sacrificed 10 days after immunization to measure proliferation of LN cells and splenocytes upon SAg or peptide restimulation. Data represent mean±SEM of the concentration values for the PBS-treated mice (black lines) and peptide-treated mice (color lines). IFN-γ production expressed as IFN-γ concentration (pg/ml). Two-way ANOVA was used to measure overall treatment effects on T cell activation and p-values are written in the graphs. Bonferonni post-hoc testing was used and significant differences are indicated in the graphs (** p<0.01; *** p<0.001: **** p<0.0001). LN, lymph nodes. (A) Tolerisation against HIP-12G1-KKK and HIP-12G1 in LN. (B) Tolerisation against HIP-12G1-KKK in spleen.
DR3tg or DR2tg mice were injected subcutaneously in the flank region with 0.1 μg, 1 μg and 10 μg of peptide on days −15, −13 and −11 respectively, followed by 3 injections of 100 μg peptide on days −8, −6 and −4 (dose escalation schedule). On day 0, the mice were immunised subcutaneously in the base of the tail with 50 μg antigen (parental peptide) emulsified in CFA (peptide/CFA). Ten days after immunisation, draining lymph nodes (LN) and spleens were harvested. LN cells and splenocytes were isolated and cultured in X-vivo 15 medium (supplemented with 2 mM L-glutamine, 50 U/mL penicillin and 50 U/mL streptomycin; Lonza) in 96-well flat bottom plates. To investigate antigen-induced cell proliferation, 0.5×10^6 cells/well were cultured (200 μl/well) for 72 hours with different antigen concentrations (0-25 μg/ml) or with 12.5 μg/ml purified protein derivative (PPD; priming control; Statens serum institut, Copenhagen, Denmark). After 72 hours, supernatant was harvested and stored at −80° C. until further analysis. IFN-γ concentrations in supernatants were assessed by cytokine ELISA (R&D Systems, Abingdon, UK) to measure cell activation.

[3] = system: SAg-specific hybridoma cells / T cell line with VAVY APC; test: Antigen Processing Independent Presentation System (APIPS) assay, fresh or fixed VAVY APC; format: cell-based, DR3 mice; details: DR3 hybridoma clone (IL-2, 48 h) or T cell line (IFN-γ, 24 h)
Procedure: (§1) FIG. 2: identification of apitopes within HIP-115. (A) DR3 mice were immunized with SAg and hybridomas were generated. 5×10^4 SAg-specific hybridoma cells were cultured with 5×10^4 fresh or fixed commercial APC (VAVY) cells. T cell proliferation was measured by IL-2 ELISA on supernatants collected after 48 h. The graph represents the mean of duplicate measurements±SEM. (B) DR3 mice were immunized with HIP-115 and a T cell line was established. Ten days after immunization the LN and spleens were harvested and cultured with different concentrations of peptide (0.1-1-2.5 and 5 μg/ml); 2×10^6 cells/ml APC+1×10^6 cells/ml CD4 T cells per well. At day 7 the cells were re-stimulated with the same concentrations of peptide. On day 14 an APIPS test was done using commercial APC (VAVY). After 24 h, antigen-induced T cell activation was measured by IFN-γ ELISA and shown as IFN-γ concentration (pg/ml). The graph represents the mean of duplicate measurements±SEM. LN, lymph nodes; APC, Antigen presenting cell; APIPS, Antigen Processing Independent Presentation System.
as §1, with “3:” for “2:”, “HIP-241125.” for “HIP-115.”, “HIP-241125+HIP-24DG” for “HIP-115”
(§2) FIG. 5: Identification of apitopes within HIP-17GN. DR3 mice were immunized with HIP-17GN and a T cell line was established. Ten days after immunization the LN and spleens were harvested and cultured with different concentrations of peptide (0.1-1-2.5 and 5 μg/ml); 2×10^6 cells/ml APC+1×10^6 cells/ml CD4 T cells per well. At day 7 the cells were re-stimulated with the same concentrations of peptide. On day 14 an APIPS test was done using commercial APC (VAVY). After 24 h, antigen-induced T cell activation was measured by IFN-γ ELISA and shown as OD values. The graph represents the mean of triplicate measurements±SEM. LN, lymph nodes; APC, Antigen presenting cell; APIPS, Antigen Processing Independent Presentation System.
as §2, with “6:” for “5:”, “HIP-12AK.” for “HIP-17GN.”, “HIP-12AK” for “HIP-17GN”, “IFN-γ concentration (pg/ml).” for “OD values.”, “duplicate” for “triplicate”
Antigen-specific clones or TCL were tested for their reactivity to the peptides, presented by fixed or not fixed (fresh) cells (VAVY or MGAR) (=APCs). 5×10^4 cells from the individual clones were cultured with 10 μg/ml peptide and 5×10^4 fixed or fresh APCs. […]

| Substance | behaves as apitope (response to peptide presented by fresh or fixed APC) [1] | tolerization against the peptide itself / parental peptide ([2]; LN) | tolerization against the peptide itself ([2]; spleen) | behaves as apitope (response to peptide presented by fresh or fixed APC) [3] |
| --- | --- | --- | --- | --- |
| KKKVKKIKAFVEQVANVVLYSSDYKKK-NH2 [HIP-9FL-KKK] | behave as apitopes |  |  |  |
| KKKGILVSYQIKVKKKK-NH2 [HIP-12G1-KKK, KKKGILVSYQIKVKKKK] |  | tolerization induced | tolerization induced | behave as apitopes |
| VKKIKAFVEQVANVVLYSSDY-NH2 [HIP-9FL] | behave as apitopes |  |  |  |
